Assay results published in PMC4026528 (PLoS ONE, 2014).

Tested on: human mRNA in HT-1080 xenograft tumors
Assay: Gene expression (qPCR) in HT-1080 xenograft tumors
Format: in vivo, female Crl:CD-1 nude mice
Procedure: RNA extraction and quantitative RT-PCR (qPCR) expression analysis was performed as described previously. Gene expression analysis was performed using the human housekeeping gene RPL13A. Primers for the hAXIN2, hCDC25A, hc-MYC, hFZD4, hDVL2, hCSNK1G and hVEGF-A were the following: [NT] Rv: [NT] Rv: [NT] Rv: [NT] Rv: [NT] Rv: [NT] Rv: [NT] Rv: [NT]. Female athymic nude mice (6 weeks old, Crl:CD-1 nude mice) were obtained from Charles River Italia (Calco, Italy). HT-1080 cells (6×10^∧6 cells) were resuspended in 200 μl of PBS 1X and injected subcutaneously in the right flank of the mice. Body weight and tumor measurements (using a digital caliper) were performed twice a week. […] SEN461 was formulated in 0.5% w/v Methocel in MilliQ water and administered PO by oral gavage twice a day at 30 mg/kg for seven consecutive days in a total of 15 animals (n = 5 for each time point). Control animals (n = 5) were administered with the vehicle for the same time period. On treatment day 19, the mice were euthanized under inhalant anesthesia with isoflurane and tumor and blood samples were collected at three different time points (1-4-8 h, n = 5 animals for each time point) after last treatment and subjected to gene expression analysis and compound quantification. All mice were maintained in a conventional-specific-pathogen-free facility according to the NIH guidelines using an approved Animal Care and Use Committee protocol. During all the experimental time period, mice were housed (5 animals/cage) in individually ventilated solid floor plastic cages (Sealsafe Plus GR500, Tecniplast-Gazzada (VA) - Italy) using as bedding the Sawdust SCOBIS UNO by […] (via Galileo […] Milanese, Milano, Italy). Cages were maintained at a temperature of 20-24°C and humidity of 40-70% (Siemens Desigo Apparatus ver. 4.1) with 70 air changes/hour in the cage (10-15 air changes/hour in the room). Animals were subjected to a 12-hour light/12-hour dark cycle and have free access to a standard pelleted commercial laboratory diet (Certified Rodent irradiated 4RF21- Mucedola, Italy) and to municipal tap water, purified by reverse osmosis and autoclaved. The study was conducted in compliance with Decreto Legislativo January 27, 1992, N. 116, Gazzetta Ufficiale N. 40 February 18, 1992, (Directive N. […]) concerning protection of animals used for scientific purposes. The project was authorized by the Italian Institute of Health (48/2009/B). The experimental protocol was […] approved by the Internal Ethical Committee.

[1] = 30 mg/kg BID PO 7 days, data not shown

Structure (SMILES): COCC(=O)N1CCN(C(=O)C2CCC(Cn3c(=O)c4cc(OC)ccc4n(C)c3=O)CC2)CC1 (stereo not shown) [SEN461]
- AXIN2 mRNA in HT-1080 xenograft tumors [1]: without any significant effect
- CDC25A mRNA in HT-1080 xenograft tumors [1]: without any significant effect
- c-MYC mRNA in HT-1080 xenograft tumors (30 mg/kg BID PO 7 days, 1, 4, 8 h, vs control animals): down-modulation of c-MYC
- VEGF-A mRNA in HT-1080 xenograft tumors (30 mg/kg BID PO, 1 h, treated versus control): did not show any difference
